# Source: ChEMBL document CHEMBL4387716, “Discovery of trans-3-(pyridin-3-yl)acrylamide-derived sulfamides as potent nicotinamide phosphoribosyltransferase (NAMPT) inhibitors for the potential treatment of cancer” (Bioorg Med Chem Lett, 2019)
# Legend:
# [1] = system: Huh-7; experiment: Antiproliferative activity against human HuH7 cells assessed as inhibition of cell growth after 72 hrs by CCK-8 assay; assay type: functional, cell-based; conditions: Huh-7, 72 h
# [2] = system: DU-145; experiment: Antiproliferative activity against human DU145 cells assessed as inhibition of cell growth after 72 hrs by CCK-8 assay; assay type: functional, cell-based; conditions: DU-145, 72 h
# [3] = system: NCI-H1975; experiment: Antiproliferative activity against human NCI-H1975 cells harboring EGFR L858R/T790M mutation assessed as inhibition of cell growth after 72 hrs by CCK-8 assay; assay type: functional, cell-based; conditions: NCI-H1975, 72 h
# [4] = system: HeLa; experiment: Antiproliferative activity against human HeLa cells assessed as inhibition of cell growth after 72 hrs by CCK-8 assay; assay type: functional, cell-based
# [5] = system: K562; experiment: Antiproliferative activity against human K562 cells assessed as inhibition of cell growth after 72 hrs by CCK-8 assay; assay type: functional, cell-based; conditions: K562, 72 h
# [6] = system: MCF7; experiment: Antiproliferative activity against human MCF7 cells assessed as inhibition of cell growth after 72 hrs by CCK-8 assay; assay type: functional, cell-based; conditions: MCF7, 72 h
# [7] = target: Nicotinamide phosphoribosyltransferase (Homo sapiens, UniProt P43490); experiment: Inhibition of recombinant NAMPT (unknown origin) using NAM and PRPP as substrates incubated for 60 mins in presence of NMNAT1 measured at 5 mins interval for 30 mins by WST1 assay
# Sequence of Nicotinamide phosphoribosyltransferase (P43490 whole entry): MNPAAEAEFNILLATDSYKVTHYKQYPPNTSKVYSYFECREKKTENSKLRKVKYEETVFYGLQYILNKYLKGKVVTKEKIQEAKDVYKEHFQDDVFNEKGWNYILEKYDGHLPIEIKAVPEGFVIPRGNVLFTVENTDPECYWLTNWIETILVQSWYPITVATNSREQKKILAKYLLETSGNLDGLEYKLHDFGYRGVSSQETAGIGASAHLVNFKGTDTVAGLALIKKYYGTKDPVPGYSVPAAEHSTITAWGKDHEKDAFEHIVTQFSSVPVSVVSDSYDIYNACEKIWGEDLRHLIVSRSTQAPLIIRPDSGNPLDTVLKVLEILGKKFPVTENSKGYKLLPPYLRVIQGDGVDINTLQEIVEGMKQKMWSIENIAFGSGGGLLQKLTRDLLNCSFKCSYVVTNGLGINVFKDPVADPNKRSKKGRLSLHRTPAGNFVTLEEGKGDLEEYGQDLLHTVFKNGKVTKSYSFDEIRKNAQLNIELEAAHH
IC50 [1],IC50 [2],IC50 [3],IC50 [4],IC50 [5],IC50 [6],IC50 [7],Structure (SMILES)
1.05 nM,5.12 nM,4.76 nM,3.75 nM,0.96 nM,0.41 nM,–,O=C(/C=C/c1cccnc1)NCCCCC1CCN(C(=O)c2ccccc2)CC1 [DAPORINAD]
0.525 to 0.53 nM,2.9 nM,2.24 nM,2.34 nM,0.456 to 0.46 nM,0.226 to 0.23 nM,5.08 nM,Cc1ccccc1NS(=O)(=O)c1cccc(CCCCCCNC(=O)/C=C/c2cccnc2)c1
164 nM,1410 nM,175 nM,1450 nM,44.9 nM,67.8 nM,24.5 nM,O=C(/C=C/c1cccnc1)NCCCCCCc1cccc(S(=O)(=O)Nc2ccc(C(F)(F)F)cc2)c1
2.58 nM,7.48 nM,4.88 nM,22.6 nM,0.84 nM,0.6 nM,11.6 nM,Cc1ccc(C)c(NS(=O)(=O)c2cccc(CCCCCCNC(=O)/C=C/c3cccnc3)c2)c1
32.7 nM,50.9 nM,25.6 nM,262 nM,5.12 nM,3.84 nM,13.1 nM,O=C(/C=C/c1cccnc1)NCCCCCCc1cccc(S(=O)(=O)Nc2ccc(Oc3ccccc3)cc2)c1
39.4 nM,150 nM,25 nM,385 nM,5.31 nM,6.3 nM,9.7 nM,O=C(/C=C/c1cccnc1)NCCCCCCc1cccc(S(=O)(=O)Nc2ccc(F)c(Cl)c2)c1
41.1 nM,140 nM,146 nM,105 nM,16.2 nM,12.5 nM,16.5 nM,O=C(/C=C/c1cccnc1)NCCCCCc1cccc(S(=O)(=O)Nc2ccccc2)c1
24.1 nM,84.4 nM,33.3 nM,170 nM,6.41 nM,5.94 nM,10.8 nM,O=C(/C=C/c1cccnc1)NCCCCCCc1cccc(S(=O)(=O)Nc2ccc(Cl)cc2)c1
13.2 nM,41.7 nM,40.7 nM,65.8 nM,4.78 nM,4 nM,12.3 nM,Cc1cccc(NS(=O)(=O)c2cccc(CCCCCCNC(=O)/C=C/c3cccnc3)c2)c1
2.82 nM,6.73 nM,6.37 nM,30.4 nM,0.88 nM,0.63 nM,10.5 nM,O=C(/C=C/c1cccnc1)NCCCCCCc1cccc(S(=O)(=O)Nc2ccccc2)c1
384 nM,165 nM,261 nM,115 nM,86.8 nM,142 nM,235 nM,O=C(/C=C/c1cccnc1)NCCCc1cccc(S(=O)(=O)Nc2ccccc2)c1
408 nM,581 nM,778 nM,333 nM,146 nM,95.7 nM,28.4 nM,O=C(/C=C/c1cccnc1)NCCCCCc1ccc(S(=O)(=O)Nc2ccccc2)cc1
> 10000 nM,> 10000 nM,> 10000 nM,> 10000 nM,4900 nM,4120 nM,5920 nM,O=C(/C=C/c1cccnc1)NCCCc1ccc(S(=O)(=O)Nc2ccccc2)cc1
24.2 nM,47.9 nM,63.6 nM,184 nM,9.56 nM,5.03 nM,17.8 nM,O=C(/C=C/c1cccnc1)NCCCCc1ccc(S(=O)(=O)Nc2ccccc2)cc1
6.92 nM,34.4 nM,17.1 nM,38.8 nM,2.98 nM,1.97 nM,9.78 nM,Cc1ccc(NS(=O)(=O)c2cccc(CCCCCCNC(=O)/C=C/c3cccnc3)c2)cc1
34.6 nM,40.1 nM,33.4 nM,132 nM,3.89 nM,3.64 nM,31.5 nM,CCc1ccc(NS(=O)(=O)c2cccc(CCCCCCNC(=O)/C=C/c3cccnc3)c2)cc1
163 nM,281 nM,157 nM,1520 nM,24.7 nM,26.3 nM,9.47 nM,CC(C)(C)c1ccc(NS(=O)(=O)c2cccc(CCCCCCNC(=O)/C=C/c3cccnc3)c2)cc1
4.28 nM,10.6 nM,1.34 nM,99.9 nM,0.93 nM,0.91 nM,9.2 nM,O=C(/C=C/c1cccnc1)NCCCCCCc1cccc(S(=O)(=O)Nc2ccc(F)cc2)c1
1220 nM,438 nM,330 nM,223 nM,56.5 nM,37.6 nM,16.4 nM,O=C(/C=C/c1cccnc1)NCCCCCCCc1ccc(S(=O)(=O)Nc2ccccc2)cc1
112 nM,328 nM,239 nM,377 nM,48.5 nM,36 nM,14.4 nM,O=C(/C=C/c1cccnc1)NCCCCCCc1ccc(S(=O)(=O)Nc2ccccc2)cc1
138 nM,429 nM,316 nM,598 nM,61.1 nM,42.6 nM,31.3 nM,O=C(/C=C/c1cccnc1)NCCCCCCCc1cccc(S(=O)(=O)Nc2ccccc2)c1
